Experimental data: ChEMBL document CHEMBL3885881, “DrugMatrix”

Species on record: Rattus norvegicus
Experiment: DrugMatrix - Regimen: Daily Repeat
Format: toxicity, organism-based, Sprague-Dawley
Set-up: regimen Daily Repeat, gender Male, age 6-8 weeks
Conditions: in vivo, po, 0 mg/kg, route oral GAVAGE, dose level Control, […]; for ABSOLUTE BASOPHIL / ABSOLUTE EOSINOPHIL / ABSOLUTE LYMPHOCYTE / ABSOLUTE MONOCYTE / ABSOLUTE SEGMENTED NEUTROPHIL / BASOPHIL / EOSINOPHIL / ERYTHROCYTE COUNT / HEMATOCRIT / HEMOGLOBIN / LEUKOCYTE COUNT / LYMPHOCYTE / MEAN CORPUSCULAR HEMOGLOBIN / MEAN CORPUSCULAR HEMOGLOBIN CONCENTRATION / MEAN CORPUSCULAR VOLUME / MONOCYTE / NEUTROPHIL / NUCLEATED RED BLOOD CELLS / PLATELET COUNT: tissue Blood; for ALANINE AMINOTRANSFERASE / ALBUMIN / ALKALINE PHOSPHATASE / ASPARTATE AMINOTRANSFERASE / BLOOD UREA NITROGEN / CARBON DIOXIDE / CHLORIDE / CHOLESTEROL / CREATINE PHOSPHOKINASE / CREATININE / GLUCOSE / LACTATE DEHYDROGENASE / LIPASE / PHOSPHORUS / POTASSIUM / SODIUM / TOTAL BILIRUBIN / TOTAL PROTEIN / URIC ACID: tissue Plasma

CC1=C(/C=C/C(C)=C/C=C/C(C)=C\C(=O)O)C(C)(C)CCC1 [ISOTRETINOIN]
ABSOLUTE BASOPHIL (72 h, time 3 day): 0 CELLS/uL | ABSOLUTE EOSINOPHIL (72 h, time 3 day): 0 CELLS/uL | ABSOLUTE LYMPHOCYTE (72 h, time 3 day): 8493 CELLS/uL | ABSOLUTE MONOCYTE (72 h, time 3 day): 127 CELLS/uL | ABSOLUTE SEGMENTED NEUTROPHIL (72 h, time 3 day): 896.67 CELLS/uL | BASOPHIL (72 h, time 3 day): 0% | EOSINOPHIL (72 h, time 3 day): 0% | ERYTHROCYTE COUNT (72 h, time 3 day): 5.53 x10E6/uL | HEMATOCRIT (72 h, time 3 day): 34.07% | HEMOGLOBIN (72 h, time 3 day): 13.28 G/DL | LEUKOCYTE COUNT (72 h, time 3 day): 9.52 x10E3/uL | LYMPHOCYTE (72 h, time 3 day): 89.17% | MEAN CORPUSCULAR HEMOGLOBIN (72 h, time 3 day): 24.07 pg | MEAN CORPUSCULAR HEMOGLOBIN CONCENTRATION (72 h, time 3 day): 39.03 G/DL | MEAN CORPUSCULAR VOLUME (72 h, time 3 day): 61.62 fL | MONOCYTE (72 h, time 3 day): 1.33% | NEUTROPHIL (72 h, time 3 day): 9.5% | NUCLEATED RED BLOOD CELLS (72 h, time 3 day): 0.17 /100WBC | PLATELET COUNT (72 h, time 3 day): 1054.17 x10E3/uL | ALANINE AMINOTRANSFERASE (72 h, time 3 day): 77.67 u/L | ALBUMIN (72 h, time 3 day): 4.08 G/DL | ALKALINE PHOSPHATASE (72 h, time 3 day): 404.5 u/L | ASPARTATE AMINOTRANSFERASE (72 h, time 3 day): 83.17 u/L | BLOOD UREA NITROGEN (72 h, time 3 day): 14.33 mg/dL | CARBON DIOXIDE (72 h, time 3 day): 33.17 mmol/L | CHLORIDE (72 h, time 3 day): 101 MEQ/L | CHOLESTEROL (72 h, time 3 day): 76.33 mg/dL | CREATINE PHOSPHOKINASE (72 h, time 3 day): 184.5 u/L | CREATININE (72 h, time 3 day): 0.13 mg/dL | GLUCOSE (72 h, time 3 day): 163.67 mg/dL | LACTATE DEHYDROGENASE (72 h, time 3 day): 130.33 u/L | LIPASE (72 h, time 3 day): 11 u/L | PHOSPHORUS (72 h, time 3 day): 9.27 mg/dL | POTASSIUM (72 h, time 3 day): 6.26 MEQ/L | SODIUM (72 h, time 3 day): 143.57 MEQ/L | TOTAL BILIRUBIN (72 h, time 3 day): 0.18 mg/dL | TOTAL PROTEIN (72 h, time 3 day): 5.82 G/DL | URIC ACID (72 h, time 3 day): 1.38 mg/dL | ABSOLUTE BASOPHIL (120 h, time 5 day): 0 CELLS/uL | ABSOLUTE EOSINOPHIL (120 h, time 5 day): 0 CELLS/uL | ABSOLUTE LYMPHOCYTE (120 h, time 5 day): 8546.17 CELLS/uL | ABSOLUTE MONOCYTE (120 h, time 5 day): 49.5 CELLS/uL | ABSOLUTE SEGMENTED NEUTROPHIL (120 h, time 5 day): 554.33 CELLS/uL | BASOPHIL (120 h, time 5 day): 0% | EOSINOPHIL (120 h, time 5 day): 0% | ERYTHROCYTE COUNT (120 h, time 5 day): 5.36 x10E6/uL | HEMATOCRIT (120 h, time 5 day): 33.38% | HEMOGLOBIN (120 h, time 5 day): 13.2 G/DL | LEUKOCYTE COUNT (120 h, time 5 day): 9.15 x10E3/uL | LYMPHOCYTE (120 h, time 5 day): 93.17% | MEAN CORPUSCULAR HEMOGLOBIN (120 h, time 5 day): 24.68 pg | MEAN CORPUSCULAR HEMOGLOBIN CONCENTRATION (120 h, time 5 day): 39.58 G/DL | MEAN CORPUSCULAR VOLUME (120 h, time 5 day): 62.38 fL | MONOCYTE (120 h, time 5 day): 0.5% | NEUTROPHIL (120 h, time 5 day): 6.33% | NUCLEATED RED BLOOD CELLS (120 h, time 5 day): 0.17 /100WBC | PLATELET COUNT (120 h, time 5 day): 1099.33 x10E3/uL | ALANINE AMINOTRANSFERASE (120 h, time 5 day): 62.33 u/L | ALBUMIN (120 h, time 5 day): 4.1 G/DL | ALKALINE PHOSPHATASE (120 h, time 5 day): 419 u/L | ASPARTATE AMINOTRANSFERASE (120 h, time 5 day): 83.17 u/L | BLOOD UREA NITROGEN (120 h, time 5 day): 15.5 mg/dL | CARBON DIOXIDE (120 h, time 5 day): 33.17 mmol/L | CHLORIDE (120 h, time 5 day): 98 MEQ/L | CHOLESTEROL (120 h, time 5 day): 58.33 mg/dL | CREATINE PHOSPHOKINASE (120 h, time 5 day): 393.17 u/L | CREATININE (120 h, time 5 day): 0.18 mg/dL | GLUCOSE (120 h, time 5 day): 163 mg/dL | LACTATE DEHYDROGENASE (120 h, time 5 day): 111.5 u/L | LIPASE (120 h, time 5 day): 9.5 u/L | PHOSPHORUS (120 h, time 5 day): 10.02 mg/dL | POTASSIUM (120 h, time 5 day): 5.73 MEQ/L | SODIUM (120 h, time 5 day): 143.65 MEQ/L | TOTAL BILIRUBIN (120 h, time 5 day): 0.2 mg/dL | TOTAL PROTEIN (120 h, time 5 day): 5.85 G/DL | URIC ACID (120 h, time 5 day): 0.78 mg/dL
